What was measured:
[1] = target: Replicase polyprotein 1ab (Severe acute respiratory syndrome coronavirus 2, UniProt P0DTD1); assay: Inhibition of SARS-CoV-2 PLPro
[2] = Cytotoxicity against African green monkey Vero E6 cells assessed as cell viability at 10 uM measured after 48 hrs by MTT assay relative to control; assay type: toxicity, cell-based, Vero C1008; conditions: chlorocebus sabaeus, read-out: Activity
[3] = Cytotoxicity against human HEK293 cells assessed as cell viability measured after 48 hrs by MTT assay; assay type: toxicity, cell-based

O=C(O)c1cc(F)c2nc(N3[C@@H]4CC[C@H]3C[C@@H](OCc3c(-c5ccccc5OC(F)(F)F)noc3C3CC3)C4)sc2c1 [TROPIFEXOR]
IC50 [1]: 5.11 µM

COc1cccc2c1C(=O)c1c(O)c3c(c(O)c1C2=O)C[C@@](O)(C(=O)CO)C[C@@H]3O[C@H]1C[C@H](N)[C@H](O)[C@H](C)O1 [DOXORUBICIN]
viability at 48 h, 10 µM [2]: 38.2%
IC50 at 48 h [3]: 8.23 µM

Reference: ChEMBL document CHEMBL6177963, “Development of acylhydrazone linked thiazoles as non-covalent dual inhibitors of SARS-CoV-2 proteases” (Eur J Med Chem, 2025)
